These results are taken from ChEMBL document CHEMBL1201862, “PubChem BioAssay data set” (2004).

Assay [1] can be described thus: Trypanosoma cruzi growth suppression in host cells – NIH3T3 host cells, beta-gal luminescence, confirmation (AID 2044).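 Note: intracellular parasites grown in NIH/3T3 mouse fibroblasts as host cells; luminescent beta-galactosidase reporter signal from transgenic T. cruzi replicating inside host cells; inhibitors lower the luminescence signal.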 Format: functional, cell-based.
The nature of assay [2]: NIH3T3 cell viability loss – ATP luminescence, mouse fibroblasts, counter-screen, dose response (AID 2010).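 Note: cells exposed to compound for about 90 hours before reading.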 In kind it is functional, cell-based.
For assay [3], the system named is Streptococcus sp. 'group A'. The experiment in a line: Streptococcus pyogenes SK(-)GAS viability under kanamycin – luminescence, BacTiterGlo, confirmation, counter-screen for streptokinase expression inhibitor project, dose response (AID 1900). Format: functional, organism-based. For orientation: The purpose of a counterscreen is to sort out artefacts and off-target activity.

In assay [4] the test system is Streptococcus. As to the kind of experiment: GAS UMAA2166 growth inhibition – luminescence, BacTiterGlo, counter-screen for streptokinase expression inhibitor project, dose response (AID 1915).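 Note: potency for reduction of bacterial viability or growth.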 Format: functional, organism-based.
Assay [5] deals with T1, Streptokinase A (Streptococcus pyogenes serotype M1, UniProt P10520).
T1 sequence (P10520 whole entry): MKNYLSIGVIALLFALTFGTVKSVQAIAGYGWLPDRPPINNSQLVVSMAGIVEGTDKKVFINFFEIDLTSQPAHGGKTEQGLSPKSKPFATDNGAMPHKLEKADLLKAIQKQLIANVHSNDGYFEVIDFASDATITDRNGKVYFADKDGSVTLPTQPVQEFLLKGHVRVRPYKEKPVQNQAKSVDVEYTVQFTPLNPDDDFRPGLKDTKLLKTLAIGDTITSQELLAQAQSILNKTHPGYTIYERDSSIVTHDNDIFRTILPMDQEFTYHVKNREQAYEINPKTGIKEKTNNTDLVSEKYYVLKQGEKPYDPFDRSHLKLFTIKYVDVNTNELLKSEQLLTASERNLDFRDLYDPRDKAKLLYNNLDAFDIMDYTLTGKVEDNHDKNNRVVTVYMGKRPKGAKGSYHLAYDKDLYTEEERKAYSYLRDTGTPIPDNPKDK
The experiment in a line: viability-normalized secreted streptokinase activity reduction – plasminogen activation absorbance, OD405, dose response (AID 1914).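 Note: secreted streptokinase activity via plasminogen activation per viability signal from cell pellet.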 In kind it is functional, Streptococcus pyogenes M1 GAS.

The target in assay [6] is Cytochrome P450 3A4 (Homo sapiens, UniProt P08684).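 Note: CYP3A4 tested as one member of a cytochrome P450 panel screen.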
For assay [7], the target named is T2, Heat shock factor protein 1 (Mus musculus, UniProt P38532).
T2 sequence (P38532 whole entry): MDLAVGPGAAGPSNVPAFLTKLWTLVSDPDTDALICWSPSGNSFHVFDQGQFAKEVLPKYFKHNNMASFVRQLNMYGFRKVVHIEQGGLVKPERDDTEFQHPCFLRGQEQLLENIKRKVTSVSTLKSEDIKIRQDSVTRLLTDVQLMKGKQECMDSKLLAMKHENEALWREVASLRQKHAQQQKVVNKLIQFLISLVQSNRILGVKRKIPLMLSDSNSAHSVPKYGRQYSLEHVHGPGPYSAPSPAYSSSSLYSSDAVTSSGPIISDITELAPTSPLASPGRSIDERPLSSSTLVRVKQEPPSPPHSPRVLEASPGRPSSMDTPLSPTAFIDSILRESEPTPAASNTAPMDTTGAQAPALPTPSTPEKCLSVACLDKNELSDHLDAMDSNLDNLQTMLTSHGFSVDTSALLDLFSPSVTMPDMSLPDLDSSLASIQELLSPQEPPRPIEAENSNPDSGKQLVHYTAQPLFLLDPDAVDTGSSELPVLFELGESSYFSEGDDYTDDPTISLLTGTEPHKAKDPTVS
The experiment in a line: decrease of HSF1-responsive luciferase luminescence – cell-based, NIH3T3, dose retest, confirmation (AID 2382).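 Note: NIH3T3 fibroblasts with HSF1-driven luciferase reporter stressed by proteasome inhibitor MG132; luminescence from HSF1-driven luciferase expression after 8 hours of MG132 stress.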 In kind it is functional.

Where “and” joins values, the source holds several entries; their conditions need not be identical. Identical values can stand only once. Calls of active or inactive are those of the source. Cut-off read from the data, not from the text of the source, for most assays here: actives have a measured EC50 and inactives only a lower limit.

Sequence of Cytochrome P450 3A4 (P08684 whole entry): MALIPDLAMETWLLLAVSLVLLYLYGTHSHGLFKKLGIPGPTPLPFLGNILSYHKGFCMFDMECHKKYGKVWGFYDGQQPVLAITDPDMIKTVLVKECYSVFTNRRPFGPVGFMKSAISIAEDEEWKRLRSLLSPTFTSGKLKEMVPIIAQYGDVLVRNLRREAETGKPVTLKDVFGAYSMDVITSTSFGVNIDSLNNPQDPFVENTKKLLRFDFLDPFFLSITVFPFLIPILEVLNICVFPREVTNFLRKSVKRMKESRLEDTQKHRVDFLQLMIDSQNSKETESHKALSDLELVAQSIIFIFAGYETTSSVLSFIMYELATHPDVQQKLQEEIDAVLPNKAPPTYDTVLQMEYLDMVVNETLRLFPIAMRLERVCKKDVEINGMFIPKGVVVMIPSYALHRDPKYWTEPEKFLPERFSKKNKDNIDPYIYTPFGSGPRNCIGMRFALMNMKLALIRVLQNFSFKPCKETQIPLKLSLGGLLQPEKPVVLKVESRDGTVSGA

Broadly, the EC50 is the midpoint of the concentration-response curve. Turning to `Cc1nc2cc([N+](=O)[O-])ccc2c(=O)n1-c1ccccc1[N+](=O)[O-]`, the EC50 is 1.91 µM (active) in assay [1] and 19.1 µM (active) in assay [2]. For `Sc1nc(SCc2ccccc2)nc2ccccc12`, the EC50 in assay [3] is 4.43 µM (active); in assay [4] it was 64.9 µM (active). Take `COC(=O)c1ccc(CSc2cc(C)c3cc(C)cc(C)c3n2)o1`: the values for the EC50 in assay [3], in assay [5] and in assay [4] were 34.2 µM (active), 12.6 µM (active) and > 150 µM (not active), respectively.

In general, AC50 refers to the midpoint of the concentration-response curve, whichever way the signal moves. `C[C@H](N)Cc1c[nH]c2ccc(OCc3cccs3)cc12`: the AC50 in assay [6] is 15.8 µM (inconclusive) and 12.6 µM (inconclusive). For `CCCCN(C)S(=O)(=O)c1ccc(C(=O)N(CCN(C)C)c2nc3ccc(C)cc3s2)cc1`, the EC50 in assay [1] was 0.182 µM (active); in assay [2], > 60 µM (inconclusive). Turning to `COCCOC(=O)CC1=NC(=O)CS1`, the EC50 in assay [7] was > 195 µM (not active).

`COc1cccc(COC(=O)c2ccc3c(=O)n4c(nc3c2)CCC4)c1OC`: the EC50 in assay [3] is 10.8 µM (active); in assay [5] it was > 150 µM (not active); in assay [4], 34.1 µM (active). For the molecule `Cc1cccc(NC(c2ccc(C)s2)c2ccc3ccc(C)nc3c2O)n1` (stereo not given), the EC50 in assay [3] is 2.83 µM (active); in assay [5] it was 2.96 µM (active); in assay [4], 9.05 µM (active).

`CCCCCCCc1nn2c(O)cc(=O)nc2s1`: the EC50 is 10.9 µM (active) in assay [3], > 150 µM (not active) in assay [5] and > 150 µM (not active) in assay [4]. As to `C=CCn1c(O)c(N=NC(=S)Nc2ccc(OC)c(Cl)c2)c2ccccc21`, the figures for the EC50 in assay [1] and in assay [2] were 0.586 µM (active) and 3.88 µM (active), respectively. For `C=CCn1c(C)cc(C(=O)CSc2nnc(NC(C)C)s2)c1C`, the EC50 in assay [7] was > 195 µM (not active). On to `O=C(CSc1nnc(NC(=O)c2cccc(Cl)c2)s1)NCC1CCCO1` (stereo not given), for which the 50% effective concentration (EC50) in assay [3], in assay [5] and in assay [4] was > 150 µM (not active) in each case. With `COc1ccc(-n2ncc3c(NCCCN4CCOCC4)ncnc32)cc1`, the EC50 in assay [7] was 1.52 µM (active). Regarding `Cc1c2c(n3c(nc4ccccc43)c1C#N)N(CCCN(C)C)CC2`, the EC50 in assay [1] is 0.242 µM (active); in assay [2], > 60 µM (not active).

Take `O=C(c1cc(C(F)(F)F)cc(C(F)(F)F)c1)N1CCC[C@@]2(CCN(c3ccccc3)C2)C1`: in assay [6], the concentration at half-maximal activity (AC50) was 3.16 µM (inconclusive). As to `Cc1cccc(CN2CCCC(C(=O)N3CCc4ccccc4C3)C2)c1` (stereo not given), the EC50 was 0.214 µM (active) in assay [1] and > 60 µM (not active) in assay [2]. For the molecule `Cc1ccc(CN2C(=O)c3ccccc3NC2c2cc(Br)ccc2O)cc1` (stereo not given), the EC50 was 5.08 µM (active) in assay [3], 5 µM (active) in assay [5] and 8.52 µM (active) in assay [4].

Regarding `CCCCC(=O)Nc1cccc(NC(=O)c2cccc(Br)c2)c1`, in assay [7], the EC50 is > 195 µM (not active). Same read-out and setting: as for `Cc1ccc(-c2nn(-c3ccccc3)cc2CN(C)C(=O)CCC(=O)O)cc1C`, the figure is > 195 µM (not active); as for `COc1ccc(N(C)C(=O)c2oc(=O)c3ccccc3c2-c2ccccc2)c(OC)c1`, > 195 µM (not active); as for `CCC1COCCS(=O)(=O)N1Cc1ccccc1C` (stereo not given), > 195 µM (not active).

With `OCCCCNCc1ccc(OCc2ccc(Cl)cc2)cc1`, the results for the EC50 in assay [1] and in assay [2] were 2.39 µM (active) and 10.6 µM (active), respectively. With `Cc1cc(C(C)(C)C)ccc1OCCOCCN1CCCC1`, the EC50 in assay [1] was 0.913 µM (active); in assay [2], > 60 µM (inconclusive). Regarding `N#CC1=C(N)SC(N)=C(C#N)C1c1c(Cl)cccc1Cl`, the EC50 in assay [3] is 6.67 µM (active); in assay [5], 93.5 µM (active); in assay [4], > 150 µM (not active). The corresponding values for `Cc1cccc(N2CCN(C(=O)c3ccc4nc(N5CCCCC5)sc4c3)CC2)c1C` are 13.8 µM (active), 14.6 µM (active) and 140 µM (active). `Cc1ccccc1C(=O)OC1CCN(C)CC1`: the EC50 was 0.115 µM (active) in assay [1] and 42.4 µM (active) in assay [2]. As for `CCn1ncc(CN2CCCC(CNC(=O)c3ccc(F)cc3)C2)c1C` (stereo not given), the results for the EC50 in assay [1] and in assay [2] were 0.106 µM (active) and > 60 µM (not active), respectively. The like results for `CC(C)(C)NC(=O)CSc1nc2ccc(Nc3nc(N4CCOCC4)nc(N4CCOCC4)n3)cc2s1` were, in that order, 0.832 µM (active) and > 30 µM (not active).

As for `Cc1cc(C)c2nc(O)c(CN(Cc3ccccc3)C(S)=NCCCN(C)C)cc2c1`, the results for the EC50 in assay [1] and in assay [2] were 2.19 µM (active) and > 60 µM (not active), respectively. The corresponding values for `CCOC(=O)c1c(-c2ccccc2)c2cc(OC)ccc2n1CCCN(C)C` are 0.653 µM (active) and 16.3 µM (active). On to `CCC(C)n1c(SC(C)C#N)nc2ccccc2c1=O` (stereo not given), for which the EC50 in assay [7] is > 195 µM (not active). For the molecule `COC(=O)C(Cc1cnc(Cl)s1)(C(=O)OC)c1ccc([N+](=O)[O-])cc1[N+](=O)[O-]`, the EC50 is 1.2 µM (active) in assay [1] and > 60 µM (not active) in assay [2]. In the case of `Cc1nn(-c2ccccc2)c(N)c1C(O)(CSc1nccn1C)C(F)(F)F` (stereo not given), the EC50 in assay [7] was > 195 µM (not active). Same read-out and setting: in the case of `O=C(c1c(F)cccc1F)N1CCN(c2ccccc2F)CC1` it was > 195 µM (not active). Still for that read-out and setting: as for `COc1ccc(S(=O)(=O)N2CCC(NC(=O)C(Cc3cccc(OC)c3OC)NC(C)=O)CC2)cc1` (stereo not given), the figure is > 195 µM (not active). For the molecule `Cc1ccsc1C(=O)OCC(=O)c1cc2ccccc2o1`, the EC50 in assay [3], in assay [5] and in assay [4] was > 150 µM (not active) throughout.

In the case of `CCOc1ccc(CN2CCCC(CNC(=O)c3ccc(F)cc3)C2)cc1CO` (stereo not given), the EC50 in assay [1] was 0.771 µM (active); in assay [2], > 30 µM (not active). The corresponding values for `Cc1ccccc1SCC(=O)Nc1cc(C(F)(F)F)ccc1N1CCOCC1` are 3.94 µM (active) and > 60 µM (not active). Consider `CN(c1ccccc1)c1nc(N2CCCC2)nc(-n2ccnc2)n1`, for which the EC50 in assay [3] was 13.1 µM (active); in assay [5] it was 75.6 µM (active); in assay [4], > 50 µM (not active).

For `CN1CCC(OC(=O)c2cccc(F)c2)CC1`, the EC50 in assay [1] was 0.256 µM (active); in assay [2], > 30 µM (not active).

Take `CC1CCN(CCOCCOc2ccc(Cl)cc2Br)CC1`: the results for the EC50 in assay [1] and in assay [2] were 0.54 µM (active) and 13.8 µM (active), respectively. With `O=C(N/N=C/c1cc([N+](=O)[O-])ccc1O)c1ccncc1`, in assay [7], the EC50 was 0.66 µM (active). `Cc1[nH]c2ccccc2c1/C=N/Nc1ccccc1[N+](=O)[O-]`: the EC50 in assay [1] is 2.3 µM (active); in assay [2], > 60 µM (not active).

In the case of `CCOc1cc(/C=N/NC(=O)CN(CCc2ccccc2)S(=O)(=O)c2ccc(NC(C)=O)cc2)ccc1O`, in assay [7], the concentration for a half-maximal effect (EC50) is reported as > 195 µM (not active). `CC(/N=C/C1=C(O)OC(C)(C)OC1=O)C(=O)O` (stereo not given): in assay [2], the concentration giving a half-maximal response (EC50) is > 60 µM (not active). In the case of `CCOc1ccc(/C=N/Nc2cc(N3CCOCC3)nc(C)n2)c(O)c1`, the EC50 in assay [3], in assay [5] and in assay [4] was > 150 µM (not active) each time. For the molecule `O=C(CSc1ccccn1)N/N=C/c1cc([N+](=O)[O-])ccc1O`, the EC50 in assay [3] is 1.01 µM (active); in assay [4] it was 2.72 µM (active). For the molecule `CCCCCCCCCC(=O)N/N=C(\C)c1cccnc1`, the concentration giving a half-maximal response (EC50) in assay [1] was 1.31 µM (active); in assay [2], > 60 µM (not active). Take `COc1cccc(/C=N/NC(=O)c2nnn(-c3nonc3N)c2C(C)C)c1OCc1ccc(F)cc1`: the EC50 is 13 µM (active) in assay [3], 62.6 µM (active) in assay [5] and 43.1 µM (active) in assay [4]. Take `O=C(O)c1cc2cc(F)ccc2[nH]1` [5-FLUOROINDOLE-2-CARBOXYLIC ACID]: the concentration for a half-maximal effect (EC50) in assay [7] is > 195 µM (not active).
